Experimental data published in US9493420B2, “Quinoline derivatives and uses thereof” (Portland State University, priority 2005, dated 2016).

The compounds below were run on mitogen-induced murine spleen lymphocytes (assay: not given). Conditions: LC50; mouse spleen lymphocytes; 72 hours + 24 hours resazurin.
Type: cell-based
Procedure: Mouse spleen lymphocytes were isolated from C57B1/6J mice by teasing tissues on a metallic sieve screen. […] Two hundred (200) μl isolated cells were then seeded in separate wells of a 96-well flat-bottom tissue culture plate at a density of 2×10^5 cells per well. […] After 72 hours incubation in a humidified atmosphere at 37° C. and 5% CO2, a solution of resazurin PBS was added to a final concentration 10 μM, and the plates were returned to the incubator for another 24 hours. Resazurin is a substrate which changes color in response to metabolic activity (such as, living cells). […] LC50 values were determined from plots of florescence versus drug concentration using non-linear regression by Prism software.

Point of comparison: Clc1ccc2c(NCCN3CCCN(C(c4ccccc4)c4ccccc4)CC3)ccnc2c1 [RCQ_36], “Cytotoxicity” value 5300 nM. Against it:
- Clc1ccc(C(c2ccccc2)N2CCN(CCCNc3ccnc4cc(Cl)ccc34)CC2)cc1 (stereo not shown) [RCQ_35] — 6.6-fold lower, 800 nM
- Fc1ccc(C(c2ccc(F)cc2)N2CCN(CCCNc3ccnc4cc(Cl)ccc34)CC2)cc1 [RCQ_37F2] — within 1.5-fold, 4100 nM
- Clc1ccc2c(NCCCN3CCC(=C4c5ccccc5C=Cc5ccccc54)CC3)ccnc2c1 [RCQ_42] — 4.8-fold lower, 1100 nM
- Clc1ccc2c(NCCN3CCCN(C4c5ccccc5-c5ccccc54)CC3)ccnc2c1 [RCQ_72] — 2.1-fold lower, 2500 nM
- Clc1ccc(C(c2ccccc2)N2CCCN(CCCNc3ccnc4cc(Cl)ccc34)CC2)cc1 (stereo not shown) [RCQ_74] — 5.9-fold lower, 900 nM

Same assay, conditions: Table 14; mouse spleen lymphocytes

Clc1ccc2c(NCCN3CCCN(C(c4ccccc4)c4ccccc4)CC3)ccnc2c1 [RCQ_36] was tested, and the cytotoxicity values was 5.3 µM.

What follows are compounds tested on D6 (CQ^S) P. falciparum strain (assay: In vitro fluorescence (Sybr Green I) growth inhibition assay, D6 strain). Conditions: Plasmodium falciparum, D6; Table 13; growth inhibition; read-out: IC50 (nM) D6 (CQ^S).
Type: cell-based
Source text: (§1) One exemplary method for measuring inhibitory effects of RCQ compound in vitro has been reported by Smilkstein et al. (Antimicrob. Agents Chemother., 48(5):1803-1806, 2004). This method employs fluorescent detection of the level of parasitemia in cultured red blood cells and can be automated for high-throughput screening of antimalarial RCQs. This exemplary method allows the inhibitory agent (such as a RCQ) to be in contact with the parasite for an entire developmental cycle without purine starvation, which is in contrast to the traditional ^3H-hypoxanthine method (Desjardins et al., Antimicrob. Agents Chemother., 16(6):710-718, 1979). Briefly, to perform the Smilkstein et al. method, an initial parasitemia of approximately 0.2% is attained by adding uninfected red blood cells (RBCs) to a stock culture of Plasmodium sp.-infected RBCs. […] After a period of incubation (such as about 72 hours), a sufficient amount (e.g., 100 μL) of a fluorescent DNA binding dye-detergent mixture (e.g., Sybr Green I dye-detergent mixture) to lyse cells and bind to DNA is added to the reactions. Because uninfected RBCs have no DNA, only parasite DNA (in infected RBCs) is available for binding to the fluorescent dye (e.g., Sybr Green I). Samples are then incubated in the dark for a period of time (e.g., one hour), followed by measurement of levels of fluorescence. For Sybr Green I, excitation and emission wavelength are 485 and 530 nm, respectively. Fluorescence readings, which represent the amount of parasite DNA in the sample, can be plotted against the Log [drug] and fit to a curve by nonlinear regression to obtain the IC50 value for the tested compound.
(§2) An in vitro fluorescence assay for determining IC50 of antimalarial drugs was performed as previously described by Smilkstein et al. (Antimicrob. Agents Chemother., 48(5):1803-1806, 2004). This relatively low-cost procedure can be automated for high-throughput screening of the antimalarial activities of RCQs described herein. Advantageous, this method also allows the tested agent (e.g, a RCQ) to be in contact with the parasite for an entire developmental cycle without purine starvation (which occurs with the commonly used ^3H-hypoxanthine method; see, e.g., Desjardins et al., Antimicrob. Agents Chemother., 16, (6):[…], 1979).
(§3) Briefly, an initial parasitemia of approximately 0.2% was attained by addition of uninfected red blood cells to a stock culture of cells infected with Dd2 (CQ^R) or D6 (CQ^S) P. falciparum strains. A 10 mM RCQ_02 solution (in DMSO) was prepared. RCQ_02 (at a final concentration from 10^−11 to 10^−4 M) and infected red blood cells (at a final concentration of 2% (v/v)) were mixed in 100 μL samples in individual wells of a 96-well plate. Each sample was prepared in triplicate. A triplicate set of reactions containing CQ (instead of RCQ_02) was included as a control. After a 72 hour incubation period, Sybr Green I dye-detergent mixture (100 μL) was added to each reaction. The samples were further incubated for an hour in the dark, and then placed in a 96-well fluorescence plate reader (Gemini-EM, […]) and analyzed with excitation and emission wavelength bands at 485 and 530 nm, respectively. Fluorescence readings were plotted against the Log [drug], and curve fitting performed by nonlinear regression to find the IC50 value.

Point of comparison: Clc1ccc2c(NCCN3CCCN(C4c5ccccc5-c5ccccc54)CC3)ccnc2c1 [RCQ_72], IC50 9.2 nM. Against it:
- CCN1CCN(c2ccnc3cc(Cl)ccc23)CC1 [Q_38a] — 30-fold higher, 280 nM
- Clc1ccc2c(NCCCNCCN(c3ccccc3)c3ccccc3)ccnc2c1 [RCQ_05(desMe)] — 3.9-fold higher, 36 nM
- Clc1ccc2c(NCCCNCCCCN(Cc3ccccc3)Cc3ccccc3)ccnc2c1 [RCQ_26] — within 1.5-fold, 7.6 nM
- Clc1ccc(C(c2ccccc2)N2CCN(CCCNc3ccnc4cc(Cl)ccc34)CC2)cc1 (stereo not shown) [RCQ_35] — 2.3-fold lower, 4 nM
- Clc1ccc2c(NCCN3CCCN(C(c4ccccc4)c4ccccc4)CC3)ccnc2c1 [RCQ_36] — within 1.5-fold, 11.7 nM
- Fc1ccc(C(c2ccc(F)cc2)N2CCN(CCCNc3ccnc4cc(Cl)ccc34)CC2)cc1 [RCQ_37F2] — 1.6-fold higher, 15 nM
- Clc1ccc2c(NCCCN3CCC(=C4c5ccccc5C=Cc5ccccc54)CC3)ccnc2c1 [RCQ_42] — 4.4-fold lower, 2.1 nM
- Clc1ccc(C(c2ccccc2)N2CCCN(CCCNc3ccnc4cc(Cl)ccc34)CC2)cc1 (stereo not shown) [RCQ_74] — 1.6-fold higher, 15 nM
- Clc1ccc2c(N3CCN(CCN(Cc4ccccc4)Cc4ccccc4)CC3)ccnc2c1 [RCQ_351] — 15-fold higher, 141 nM

The compounds below were run on W2 (CQ^R) P. falciparum strain (assay: In vitro fluorescence (Sybr Green I) growth inhibition assay, W2 strain). Conditions: Plasmodium falciparum, W2; Table 13; growth inhibition; read-out: IC50 (nM) W2 (CQ^R).
Type: cell-based

With Clc1ccc(C(c2ccccc2)N2CCN(CCCNc3ccnc4cc(Cl)ccc34)CC2)cc1 (stereo not shown) [RCQ_35] the IC50 was 4 nM.

What follows are compounds tested on Dd2 (CQ^R) P. falciparum strain (assay: In vitro fluorescence (Sybr Green I) growth inhibition assay, Dd2 strain). Conditions: Plasmodium falciparum, DD2; Table 13; growth inhibition; read-out: IC50 (nM) Dd2 (CQ^R).
Type: cell-based
Source text: as §1, §2, §3

Point of comparison: Clc1ccc2c(NCCN3CCCN(C(c4ccccc4)c4ccccc4)CC3)ccnc2c1 [RCQ_36], IC50 98 nM. Against it:
- CCN1CCN(c2ccnc3cc(Cl)ccc23)CC1 [Q_38a] — 4.1-fold higher, 400 nM
- Clc1ccc2c(NCCCNCCN(c3ccccc3)c3ccccc3)ccnc2c1 [RCQ_05(desMe)] — 3.6-fold lower, 27 nM
- Clc1ccc2c(NCCCNCCCCN(Cc3ccccc3)Cc3ccccc3)ccnc2c1 [RCQ_26] — 9.2-fold lower, 10.6 nM
- Clc1ccc(C(c2ccccc2)N2CCN(CCCNc3ccnc4cc(Cl)ccc34)CC2)cc1 (stereo not shown) [RCQ_35] — 16-fold lower, 6 nM
- Fc1ccc(C(c2ccc(F)cc2)N2CCN(CCCNc3ccnc4cc(Cl)ccc34)CC2)cc1 [RCQ_37F2] — 5.2-fold lower, 19 nM
- Clc1ccc2c(NCCCN3CCC(=C4c5ccccc5C=Cc5ccccc54)CC3)ccnc2c1 [RCQ_42] — 54-fold lower, 1.8 nM
- Clc1ccc2c(NCCN3CCCN(C4c5ccccc5-c5ccccc54)CC3)ccnc2c1 [RCQ_72] — 10-fold lower, 9.6 nM
- Clc1ccc(C(c2ccccc2)N2CCCN(CCCNc3ccnc4cc(Cl)ccc34)CC2)cc1 (stereo not shown) [RCQ_74] — 10-fold lower, 9.8 nM
- Clc1ccc2c(N3CCN(CCN(Cc4ccccc4)Cc4ccccc4)CC3)ccnc2c1 [RCQ_351] — 1.7-fold higher, 164 nM
